In patent publication US8192962B2, “Processes for detecting toxic substances” (Daikin Industries, Ltd., priority 2001, dated 2012):

Test system: Detoxification protein genes
Experiment: DNA chip mRNA expression in yeast, detoxification protein genes (Table 8)
Assay type: cell-based, Saccharomyces cerevisiae S288C
Summary of the method: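 S. cerevisiae S288C grown at 25° C in YPD were exposed in log phase for two hours to one toxic chemical at a growth-inhibiting, non-lethal concentration; untreated cells served as control. Poly(A) mRNA was reverse-transcribed with Cy3/Cy5-dUTP and hybridized to a whole-genome yeast DNA chip at 65° C for over 12 hours; values are fluorescence ratios versus untreated.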

## Na2As [(1)]
Yeast gene YBL064C
  The level of expressed mRNA in the presence of chemical substance/The level of expressed mRNA in the absence of chemical substance: 2.6
Yeast gene YBR008C
  The level of expressed mRNA in the presence of chemical substance/The level of expressed mRNA in the absence of chemical substance: 3.0
Yeast gene YBR145W
  The level of expressed mRNA in the presence of chemical substance/The level of expressed mRNA in the absence of chemical substance: 1.5
Yeast gene YBR244W
  The level of expressed mRNA in the presence of chemical substance/The level of expressed mRNA in the absence of chemical substance: 0.6
Yeast gene YBR293W
  The level of expressed mRNA in the presence of chemical substance/The level of expressed mRNA in the absence of chemical substance: 1.9
Yeast gene YCL035C
  The level of expressed mRNA in the presence of chemical substance/The level of expressed mRNA in the absence of chemical substance: 2.0
Yeast gene YCL069W
  The level of expressed mRNA in the presence of chemical substance/The level of expressed mRNA in the absence of chemical substance: 0.9
Yeast gene YCR083W
  The level of expressed mRNA in the presence of chemical substance/The level of expressed mRNA in the absence of chemical substance: 1.1
Yeast gene YDL100C
  The level of expressed mRNA in the presence of chemical substance/The level of expressed mRNA in the absence of chemical substance: 1.0
Yeast gene YDL168W
  The level of expressed mRNA in the presence of chemical substance/The level of expressed mRNA in the absence of chemical substance: 2.3
Yeast gene YDR256C
  The level of expressed mRNA in the presence of chemical substance/The level of expressed mRNA in the absence of chemical substance: 0.8
Yeast gene YDR453C
  The level of expressed mRNA in the presence of chemical substance/The level of expressed mRNA in the absence of chemical substance: 1.1
Yeast gene YDR513W
  The level of expressed mRNA in the presence of chemical substance/The level of expressed mRNA in the absence of chemical substance: 2.2
Yeast gene YDR538W
  The level of expressed mRNA in the presence of chemical substance/The level of expressed mRNA in the absence of chemical substance: 0.9
Yeast gene YEL027W
  The level of expressed mRNA in the presence of chemical substance/The level of expressed mRNA in the absence of chemical substance: 1.2
Yeast gene YEL065W
  The level of expressed mRNA in the presence of chemical substance/The level of expressed mRNA in the absence of chemical substance: 0.3
Yeast gene YER185W
  The level of expressed mRNA in the presence of chemical substance/The level of expressed mRNA in the absence of chemical substance: 2.0
Yeast gene YFL050C
  The level of expressed mRNA in the presence of chemical substance/The level of expressed mRNA in the absence of chemical substance: 0.7
Yeast gene YGL013C
  The level of expressed mRNA in the presence of chemical substance/The level of expressed mRNA in the absence of chemical substance: 0.9
Yeast gene YGL254W
  The level of expressed mRNA in the presence of chemical substance/The level of expressed mRNA in the absence of chemical substance: 1.2
Yeast gene YGR088W
  The level of expressed mRNA in the presence of chemical substance/The level of expressed mRNA in the absence of chemical substance: 1.3
Yeast gene YGR138C
  The level of expressed mRNA in the presence of chemical substance/The level of expressed mRNA in the absence of chemical substance: 1.1
Yeast gene YGR197C
  The level of expressed mRNA in the presence of chemical substance/The level of expressed mRNA in the absence of chemical substance: 1.1
Yeast gene YGR209C
  The level of expressed mRNA in the presence of chemical substance/The level of expressed mRNA in the absence of chemical substance: 1.6
Yeast gene YGR224W
  The level of expressed mRNA in the presence of chemical substance/The level of expressed mRNA in the absence of chemical substance: 0.9
Yeast gene YHL040C
  The level of expressed mRNA in the presence of chemical substance/The level of expressed mRNA in the absence of chemical substance: 1.6
Yeast gene YHL047C
  The level of expressed mRNA in the presence of chemical substance/The level of expressed mRNA in the absence of chemical substance: 0.6
Yeast gene YHR008C
  The level of expressed mRNA in the presence of chemical substance/The level of expressed mRNA in the absence of chemical substance: 1.3
Yeast gene YHR048W
  The level of expressed mRNA in the presence of chemical substance/The level of expressed mRNA in the absence of chemical substance: 2.5
Yeast gene YHR053C
  The level of expressed mRNA in the presence of chemical substance/The level of expressed mRNA in the absence of chemical substance: 3.5
Yeast gene YHR055C
  The level of expressed mRNA in the presence of chemical substance/The level of expressed mRNA in the absence of chemical substance: 4.4
Yeast gene YIR002C
  The level of expressed mRNA in the presence of chemical substance/The level of expressed mRNA in the absence of chemical substance: 0.8
Yeast gene YIR038C
  The level of expressed mRNA in the presence of chemical substance/The level of expressed mRNA in the absence of chemical substance: 1.3
Yeast gene YJL101C
  The level of expressed mRNA in the presence of chemical substance/The level of expressed mRNA in the absence of chemical substance: 2.1
Yeast gene YJR104C
  The level of expressed mRNA in the presence of chemical substance/The level of expressed mRNA in the absence of chemical substance: 1.4
Yeast gene YKL026C
  The level of expressed mRNA in the presence of chemical substance/The level of expressed mRNA in the absence of chemical substance: 2.7
Yeast gene YKL064W
  The level of expressed mRNA in the presence of chemical substance/The level of expressed mRNA in the absence of chemical substance: 0.6
Yeast gene YKR066C
  The level of expressed mRNA in the presence of chemical substance/The level of expressed mRNA in the absence of chemical substance: 0.9
Yeast gene YKR105C
  The level of expressed mRNA in the presence of chemical substance/The level of expressed mRNA in the absence of chemical substance: 0.8
Yeast gene YKR106W
  The level of expressed mRNA in the presence of chemical substance/The level of expressed mRNA in the absence of chemical substance: 1.3
Yeast gene YLL028W
  The level of expressed mRNA in the presence of chemical substance/The level of expressed mRNA in the absence of chemical substance: 0.6
Yeast gene YLL057C
  The level of expressed mRNA in the presence of chemical substance/The level of expressed mRNA in the absence of chemical substance: 2.2
Yeast gene YLL060C
  The level of expressed mRNA in the presence of chemical substance/The level of expressed mRNA in the absence of chemical substance: 12.5
Yeast gene YLR043C
  The level of expressed mRNA in the presence of chemical substance/The level of expressed mRNA in the absence of chemical substance: 1.4
Yeast gene YLR046C
  The level of expressed mRNA in the presence of chemical substance/The level of expressed mRNA in the absence of chemical substance: 0.7
Yeast gene YML028W
  The level of expressed mRNA in the presence of chemical substance/The level of expressed mRNA in the absence of chemical substance: 1.0
Yeast gene YML116W
  The level of expressed mRNA in the presence of chemical substance/The level of expressed mRNA in the absence of chemical substance: 4.1
Yeast gene YMR015C
  The level of expressed mRNA in the presence of chemical substance/The level of expressed mRNA in the absence of chemical substance: 0.7
Yeast gene YMR038C
  The level of expressed mRNA in the presence of chemical substance/The level of expressed mRNA in the absence of chemical substance: 1.9
Yeast gene YNL239W
  The level of expressed mRNA in the presence of chemical substance/The level of expressed mRNA in the absence of chemical substance: 1.0
Yeast gene YNL241C
  The level of expressed mRNA in the presence of chemical substance/The level of expressed mRNA in the absence of chemical substance: 1.3
Yeast gene YNL259C
  The level of expressed mRNA in the presence of chemical substance/The level of expressed mRNA in the absence of chemical substance: 1.6
Yeast gene YOL158C
  The level of expressed mRNA in the presence of chemical substance/The level of expressed mRNA in the absence of chemical substance: 0.7
Yeast gene YOR031W
  The level of expressed mRNA in the presence of chemical substance/The level of expressed mRNA in the absence of chemical substance: 2.6
Yeast gene YOR153W
  The level of expressed mRNA in the presence of chemical substance/The level of expressed mRNA in the absence of chemical substance: 1.6
Yeast gene YOR247W
  The level of expressed mRNA in the presence of chemical substance/The level of expressed mRNA in the absence of chemical substance: 1.7
Yeast gene YOR251C
  The level of expressed mRNA in the presence of chemical substance/The level of expressed mRNA in the absence of chemical substance: 1.1
Yeast gene YOR273C
  The level of expressed mRNA in the presence of chemical substance/The level of expressed mRNA in the absence of chemical substance: 0.7
Yeast gene YPL163C
  The level of expressed mRNA in the presence of chemical substance/The level of expressed mRNA in the absence of chemical substance: 0.6
Yeast gene YPR200C
  The level of expressed mRNA in the presence of chemical substance/The level of expressed mRNA in the absence of chemical substance: 47.7
